Results taken from patent US20240327351A1, “AMIDE AND ETHER SUBSTITUTED N-(1H-INDOL-7-YL)BENZENESULFONAMIDES AND USES THEREOF” (TRIANA BIOMEDICINES, INC., priority 2021, published 2024).

How the values were obtained:
DCAF15/RBM39 = DCAF15/RBM39 (Homo sapiens, UniProt Q14498+Q66K64); test: AlphaLISA compound-induced DCAF15-RBM39 ternary complex formation; format: binding; details: His-tagged DCAF15 complex and biotin-carrying RBM39
Experimental: Example 6: Quantitative Evaluation of Compound-Induced Ternary Complex Formation Using Amplified Luminescent Proximity Homogeneous Assay
Compound-induced DCAF15-RBM39 ternary complex formation was monitored using AlphaLISA® assays (Perkin Elmer, Waltham, MA). Test compounds were first collected in a 384-well microplate (cat. #781280, Grenier Bio-One, Monroe, NC) as 2 mM stocks in 100% dimethyl sulfoxide (DMSO). These stocks were then serially diluted in DMSO by 3-fold into a new plate (cat. #781280, Grenier Bio-One, Monroe, NC) using a Mosquito HTS dispenser (mosquito@ HTS, SPT Labtech, Boston, MA). 0.2 ul of these diluted stocks were then dispensed into a 384-well Optiplate (cat. #6007290, Perkin Elmer, Waltham, MA) in duplicate wells, to assemble the final assay plate consisting of duplicated dose ranges. Separately, a protein mixture consisting of His-tagged DCAF15 complex and biotin-carrying RBM39, each at 408 nM (2.04×), was prepared in 50 mM HEPES, pH 7.5, 100 mM NaCl, 2 mM MgCl2, 0.1% BSA, 2 mM TCEP, 0.05% Tween-20 (dilution buffer). 9.8 ul of this protein mixture was then mixed with the compounds in the assay plate and incubated for one hour at room temperature. Reaction mixtures with no compounds added were included as negative controls, while a His-tagged and biotinylated GST protein was included to track general assay performance. Nickel Chelate AlphaLISA Acceptor beads (cat. #AL108M, Perkin Elmer, MA) and AlphaScreen Streptavidin Donor beads (cat. #6760002, Perkin Elmer, Waltham, MA) were prepared separately in the dilution buffer as 4× stocks (80 ug/ml). The beads were then added to the assay plate sequentially with incubation at room temperature for 1-2 hours after each addition. Signals were recorded using EnVision 2104 Multilabel Plate Reader (Perkin Elmer, Waltham, MA) and titration curves were generated in GraphPad Prism (7.00, GraphPad, La Jolla, CA).

DCAF15 = DCAF15 (Homo sapiens, UniProt Q66K64); test: HTRF competition assay, binary interaction between compounds and DCAF15; format: binding; details: competition with Alexa Fluor 647 tracer, His-tagged DCAF15 complex
Experimental: Example 7: Measurement of Binary Interaction Between Compounds And DCAF15 Using Homogeneous Time Resolved Fluorescence (HTRF)
DCAF15 interactions with test compounds were monitored using HTRF competition assays (Cisbio, Bedford, MA). Test compounds were first collected in a 384-well microplate (cat. #781280, Grenier Bio-One, Monroe, NC) as 10 mM stocks in 100% dimethyl sulfoxide (DMSO). A second stock plate (cat. #781280, Grenier Bio-One, Monroe, NC) was prepared through 3-fold serial dilution in DMSO of the afore-mentioned stocks using a Mosquito HTS dispenser (mosquito@ HTS, SPT Labtech, Boston, MA). 0.2 ul of these diluted stocks were then dispensed into a 384-well Optiplate (cat. #6007290, Perkin Elmer, Waltham, MA) in duplicate wells, to assemble the assay plate. The tracer molecule containing an Alexa Fluor 647 probe was prepared in 25 mM HEPES pH 7.5, 100 mM NaCl, 0.1 mg/ml BSA, 0.005% Tween 20, 0.5 mM TCEP (dilution buffer) to 612 nM (2.04×). Separately, His-tagged DCAF15 complex was prepared at 32 nM (4×) in the dilution buffer, and mAb Anti-6His-Eu cryptate Gold (cat. #61H12KLA, Cisbio, Bedford, MA) at 4× dilution in the detection buffer (cat. #61 DB9RDF, Cisbio, Bedford, MA). These two solutions were mixed and incubated for 15 min at room temperature. 9.8 ul of the tracer solution and 10 ul of the DCAF15/mAb Anti-6His-Eu cryptate Gold mixture were added sequentially to each well in the assay plate. Reaction mixtures with no DCAF15 added were included as positive controls. The final mixture was incubated for an hour at room temperature and spun down briefly before data collection at 615 nm and 666 nm using En Vision 2104 Multilabel Plate Reader (Perkin Elmer, Bedford, MA). Binding was estimated based on ratiometric analysis and titration curves were generated in GraphPad Prism (7.00, GraphPad, La Jolla, CA).

| EC50 (DCAF15/RBM39) [µM] | IC50 (DCAF15) [µM] | SMILES |
| --- | --- | --- |
| < 1 | 1 to 10 | O=S(=O)(Nc1ccc(Cl)c2c(Cl)c[nH]c12)c1ccc(OCCC[C@@H]2CCCN2)cc1 [Compound 97] |
| 1 to 10 | 1 to 10 | O=C(NCCOCC1CC1)c1cccc(S(=O)(=O)Nc2ccc(Cl)c3c(Cl)c[nH]c23)c1F [Compound 186] |
| > 100 | > 100 | Cc1nc(-c2ccc(COc3ccc(S(=O)(=O)Nc4ccc(Cl)c5c(Cl)c[nH]c45)cc3)cc2)no1 [Compound 64] |
| 1 to 10 | > 100 | O=C(NCCCc1ccc(Cl)cc1)c1ccc(S(=O)(=O)Nc2ccc(Cl)c3c(Cl)c[nH]c23)c(F)c1 [Compound 209] |
| 1 to 10 | 1 to 10 | NC[C@H]1CC[C@H](Oc2ccc(S(=O)(=O)Nc3ccc(Cl)c4c(Cl)c[nH]c34)cc2)CC1 [Compound 15] |
| 1 to 10 | 1 to 10 | O=C(c1cccc(S(=O)(=O)Nc2ccc(Cl)c3c(Cl)c[nH]c23)c1F)N1CC(N2CCc3ccccc32)C1 [Compound 214] |
| < 1 | 1 to 10 | CN1CCN(C(=O)c2ccc(S(=O)(=O)Nc3ccc(Cl)c4c(Cl)c[nH]c34)cc2)CC1 [Compound 223] |
| 1 to 10 | > 100 | O=S(=O)(Nc1ccc(Cl)c2c(Cl)c[nH]c12)c1ccc(Oc2ccc(F)cc2)c(Br)c1 [Compound 234] |
| 1 to 10 | 1 to 10 | Cc1ccc(CCNC(=O)c2cccc(S(=O)(=O)Nc3ccc(Cl)c4c(Cl)c[nH]c34)c2F)o1 [Compound 198] |
| < 1 | 1 to 10 | CC(C)CNC(=O)c1ccc(S(=O)(=O)Nc2ccc(Cl)c3c(Cl)c[nH]c23)c(F)c1 [Compound 240] |
| 1 to 10 | 1 to 10 | CN(C)C(=O)c1cccc(S(=O)(=O)Nc2ccc(Cl)c3c(Cl)c[nH]c23)c1 [Compound 238] |
| 1 to 10 | 1 to 10 | O=S(=O)(Nc1ccc(Cl)c2c(Cl)c[nH]c12)c1ccc(OCCCCc2ccccn2)cc1 [Compound 140] |
| 1 to 10 | 1 to 10 | O=C(c1ccc(S(=O)(=O)Nc2ccc(Cl)c3c(Cl)c[nH]c23)c(F)c1)N1CCc2[nH]c(-c3ccccc3)nc2C1 [Compound 227] |
| < 1 | < 1 | O=C(NCCc1ccccn1)c1cccc(S(=O)(=O)Nc2ccc(Cl)c3c(Cl)c[nH]c23)c1F [Compound 200] |
| < 1 | 1 to 10 | Cn1ncnc1COc1ccc(S(=O)(=O)Nc2ccc(Cl)c3c(Cl)c[nH]c23)cc1 [Compound 67] |
| < 1 | 1 to 10 | O=C(c1cccc(S(=O)(=O)Nc2ccc(Cl)c3c(Cl)c[nH]c23)c1F)N1CCc2[nH]c(-c3ccccc3)nc2C1 [Compound 226] |
| < 1 | < 1 | CN1C[C@@H](NC(=O)c2cccc(S(=O)(=O)Nc3ccc(Cl)c4c(Cl)c[nH]c34)c2F)CCC1=O [Compound 158] |
| > 100 | > 100 | O=C(NC[C@H]1Cc2ccccc21)c1ccc(S(=O)(=O)Nc2ccc(Cl)c3c(Cl)c[nH]c23)c(F)c1 [Compound 165] |
| 1 to 10 | 1 to 10 | COc1cccc(Oc2ccc(CNC(=O)c3cccc(S(=O)(=O)Nc4ccc(Cl)c5c(Cl)c[nH]c45)c3F)cn2)c1 [Compound 181] |
| < 1 | < 1 | O=C(c1ccc(S(=O)(=O)Nc2ccc(Cl)c3c(Cl)c[nH]c23)c(F)c1)N1CC[C@H](n2ccnn2)C1 [Compound 217] |
| 1 to 10 | 1 to 10 | Cc1ccnc(CNC(=O)c2cccc(S(=O)(=O)Nc3ccc(Cl)c4c(Cl)c[nH]c34)c2F)c1 [Compound 178] |
| < 1 | 10 to 100 | O=S(=O)(Nc1ccc(Cl)c2c(Cl)c[nH]c12)c1ccc(OC[C@H]2[C@@H]3CNC[C@@H]32)cc1 [Compound 48] |

| EC50 (DCAF15/RBM39) [µM] | IC50 (DCAF15) [µM] | SMILES |
| --- | --- | --- |
| < 1 | 10 to 100 | CN1CCN(CCCOc2cccc(S(=O)(=O)Nc3ccc(Cl)c4c(Cl)c[nH]c34)c2)CC1 [Compound 104] |
| 1 to 10 | 1 to 10 | O=S(=O)(Nc1ccc(Cl)c2c(Cl)c[nH]c12)c1ccc(OC2CCC3(CC2)CNC3)cc1 [Compound 27] |
| 1 to 10 | 10 to 100 | O=S(=O)(Nc1ccc(Cl)c2c(Cl)c[nH]c12)c1cccc(OC2CCC3(CCNCC3)CC2)c1 [Compound 32] |
| > 100 | > 100 | O=C(OCc1ccccc1)N1C[C@@H]2[C@@H](COc3ccc(S(=O)(=O)Nc4ccc(Cl)c5c(Cl)c[nH]c45)cc3)[C@@H]2C1 [Compound 50] |
| 1 to 10 | > 100 | CS(=O)(=O)c1ccc(CCOc2cccc(S(=O)(=O)Nc3ccc(Cl)c4c(Cl)c[nH]c34)c2)cc1 [Compound 76] |
| 1 to 10 | 10 to 100 | CNC(=O)c1ccc(F)c(S(=O)(=O)Nc2ccc(Cl)c3c(Cl)c[nH]c23)c1 [Compound 237] |
| > 100 | > 100 | O=C(N[C@@H]1CCC[C@@H](Oc2ccc(S(=O)(=O)Nc3ccc(Cl)c4c(Cl)c[nH]c34)cc2)C1)OCc1ccccc1 [Compound 13] |
| < 1 | < 1 | O=C(NCCCC(=O)N1CCCC1)c1ccc(S(=O)(=O)Nc2ccc(Cl)c3c(Cl)c[nH]c23)c(F)c1 [Compound 207] |
| 1 to 10 | 1 to 10 | CC[C@H](NC(=O)c1cccc(S(=O)(=O)Nc2ccc(Cl)c3c(Cl)c[nH]c23)c1F)c1ccc2c(c1)OCCO2 [Compound 210] |
| < 1 | < 1 | O=C(N[C@H]1CCCCNC1=O)c1ccc(S(=O)(=O)Nc2ccc(Cl)c3c(Cl)c[nH]c23)c(F)c1 [Compound 161] |
| < 1 | 1 to 10 | O=C(NCCOC1CCS(=O)(=O)CC1)c1cccc(S(=O)(=O)Nc2ccc(Cl)c3c(Cl)c[nH]c23)c1F [Compound 188] |
| 1 to 10 | > 100 | CS(=O)(=O)c1ccc(CCOc2ccc(S(=O)(=O)Nc3ccc(Cl)c4c(Cl)c[nH]c34)cc2)cc1 [Compound 77] |
| 1 to 10 | 1 to 10 | CC(C)(C)OC(=O)N1CCC2(CC1)CN(C(=O)c1ccc(S(=O)(=O)Nc3ccc(Cl)c4c(Cl)c[nH]c34)c(F)c1)CCO2 [Compound 225] |
| 1 to 10 | > 100 | O=S(=O)(Nc1ccc(Cl)c2c(Cl)c[nH]c12)c1ccc(O[C@@H]2C[C@@H]3C[C@@H]3C2)cc1 [Compound 21] |
| < 1 | 1 to 10 | CCc1nc(CN(C)C(=O)c2cccc(S(=O)(=O)Nc3ccc(Cl)c4c(Cl)c[nH]c34)c2F)no1 [Compound 176] |
| < 1 | < 1 | O=C(c1cccc(S(=O)(=O)Nc2ccc(Cl)c3c(Cl)c[nH]c23)c1F)N1CCC(Oc2cccnc2)CC1 [Compound 219] |
| 1 to 10 | 1 to 10 | NC(=O)c1cc(Cl)cc(S(=O)(=O)Nc2ccc(Cl)c3c(Cl)c[nH]c23)c1 [Compound 235] |
| > 100 | > 100 | O=C(N[C@H]1CCc2ccccc21)c1ccc(S(=O)(=O)Nc2ccc(Cl)c3c(Cl)c[nH]c23)c(F)c1 [Compound 155] |
| 1 to 10 |  | Nc1ccc(S(=O)(=O)Nc2cnc3c(Cl)cccc3n2)cc1 [CQS, cloroquinoxaline sulfonamide, reference compound] |
| < 1 |  | NS(=O)(=O)c1ccc(S(=O)(=O)Nc2cccc3c(Cl)c[nH]c23)cc1 [Indisulam, indisulam, reference compound] |
| 1 to 10 |  | O=C(NS(=O)(=O)c1ccc(Br)s1)c1ccc(Cl)cc1Cl [Tasisulam, tasisulam, reference compound] |
